These results are taken from paper PMC12751014, “Non-Catalytic Inhibitors of the p38/MK2 Interface: Repurposing Approved Drugs to Target Neuroinflammation in Alzheimer’s Disease” (Journal of Medicinal Chemistry, 2025).

Entries after “also recorded” stand apart in the source; their conditions may differ.

T1 sequence (Q16539 whole entry): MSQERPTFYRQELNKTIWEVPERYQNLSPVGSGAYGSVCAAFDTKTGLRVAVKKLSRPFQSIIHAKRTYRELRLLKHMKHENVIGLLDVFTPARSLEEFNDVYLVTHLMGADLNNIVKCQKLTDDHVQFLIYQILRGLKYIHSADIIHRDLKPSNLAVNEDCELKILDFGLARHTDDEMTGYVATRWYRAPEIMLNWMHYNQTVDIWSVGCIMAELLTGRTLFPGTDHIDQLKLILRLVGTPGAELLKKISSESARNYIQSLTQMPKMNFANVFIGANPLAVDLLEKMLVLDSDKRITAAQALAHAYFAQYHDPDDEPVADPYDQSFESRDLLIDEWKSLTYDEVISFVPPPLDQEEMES

In one assay the target is T1, p38/MK2 interaction (Homo sapiens, UniProt Q16539). Description: TR-FRET assay with purified recombinant His-p38 and GST-MK2. The assay is classed as binding. As to conditions: purified His-p38 and GST-MK2; read-out: IC50, inhibition of p38/MK2 PPI (TR-FRET, recombinant purified proteins). The procedure:
ENSG00000112062, UniProt ID: Q16539-1) was cloned into a pMCSG7 vector and transformed into Escherichia coli strain BL21(DE3). […] The resuspended cells were lysed through sonication. The lysate was centrifuged for 20 min at 70,000g at 4 °C and the clarified supernatant was passed through a gravity column containing 2 mL Ni-NTA resin pre-equilibrated with equilibration buffer. The resin was then washed with 25 column volumes of equilibration buffer supplemented with 40 mM imidazole, and the protein was eluted with equilibration buffer supplemented with 200 mM imidazole. […] The purity of the enzyme was verified by sodium dodecyl sulfate-polyacrylamide gel electrophoresis (SDS-PAGE) with Coomassie staining, aliquots flash frozen in liquid nitrogen, and stored at -80 °C.
Background: TR-FRET usually uses a lanthanide donor and a delayed reading to cut background.
As for `CCc1cn(-c2cc(NC(=O)c3ccc(C)c(Nc4nccc(-c5cccnc5)n4)c3)cc(C(F)(F)F)c2)cn1` [Compound 2], the IC50 was determined as 2.27 µM.
Still for that read-out and setting: the result for `Cc1cn(-c2cc(C(=O)Nc3ccc(C)c(Nc4nccc(-c5cccnc5)n4)c3)cc(C(F)(F)F)c2)cn1` [Compound 3] reads 7.45 µM; that for `Cc1cn(-c2cc(NC(=O)c3ccc(O)c(Nc4nccc(-c5cccnc5)n4)c3)cc(C(F)(F)F)c2)cn1` [Compound 4], 8.24 µM.
On the same count and under the same terms, the result for `CNC(=O)c1ccc(CCNC(=O)C(=O)Nc2cc(-n3cnc(C)c3)cc(C(F)(F)F)c2)cc1` [Compound 6] reads 21.3 µM; that for `Cc1cn(-c2cc(NC(=O)c3ccc(C)c(Nc4ncccn4)c3)cc(C(F)(F)F)c2)cn1` [Compound 5], 11.5 µM.

Staying with this assay, now noted: read-out: inhibition of p38/MK2 PPI at 30 μM; 30 μM; recombinant purified proteins.
With `Cc1cn(-c2cc(NC(=O)c3[nH]cnc3C#N)cc(C(F)(F)F)c2)cn1` [Compound 9], the inhibition at 30 µM was below 50%.
Take `COc1ccc(CC(=O)Nc2cc(-n3cnc(C)c3)cc(C(F)(F)F)c2)nc1` [Compound 10]: the inhibition at 30 µM was below 50%.
For `Cc1cn(-c2cc(NC(=O)C(=O)NCc3cccc(C(N)=O)c3)cc(C(F)(F)F)c2)cn1` [Compound 8], the inhibition at 30 µM was below 50%.
On the same count and under the same terms, the result for `Cc1cn(-c2cc(NC(=O)Nc3nnc(-c4ccncc4)s3)cc(C(F)(F)F)c2)cn1` [Compound 7] reads below 50%.

The assay is the same for the next values; noted with them: recombinant p38 and MK2 purified from E. coli.
Consider `O=c1ncn2nc(Sc3ccc(F)cc3F)ccc2c1-c1c(Cl)cccc1Cl` [VX-745], for which the “disruption of p38/MK2 interaction (TR-FRET signal)” value is on record as “failed to disrupt the interaction; also recorded: failed to reduce the TR-FRET signal”.

The target of the next assay is T1, p38/MK2 interaction. As to the kind of experiment: TR-FRET ultra-high-throughput screening (uHTS), 1536-well, HEK293T lysate VF-p38α / GST-MK2. The assay is classed as binding. As to conditions: fluorescence interference readout. Set-up: inhibition of p38/MK2 interaction, primary screen: concentration or dose not given beside the values.
Consider `CCCCCCCCCCCCc1ccc(S(=O)(=O)Nc2nncs2)cc1` [PHT-427, 4-dodecyl-N-(1,3,4-thiadiazol-2-yl)benzenesulfonamide], for which the “620 nm Fold over Control” value is on record as 0.94.
Take `C=CC(=O)Nc1ccc2ncnc(Nc3ccc(OCc4cccc(F)c4)c(Cl)c3)c2c1` [AST-1306, N-[4-[3-chloro-4-[(3-fluorophenyl)methoxy]anilino]quinazolin-6-yl]prop-2-enamide;4-methylbenzenesulfonic acid]: the “620 nm Fold over Control” value is given as 1.01.

Still in this assay, the particulars now being: relative to DMSO control, 1536-well.
Turning to `CN(C)[C@@H]1C(O)=C(C(N)=O)C(=O)[C@@]2(O)C(O)=C3C(=O)c4c(O)cccc4[C@@](C)(O)[C@H]3[C@H](O)[C@@H]12` [oxytetracycline], the “inhibition of p38/MK2 interaction, primary screen” value came out at 51%.
The same measure, in the same setting: the result for `C[C@@H]1[C@H](O)[C@@H](C)/C=C/C=C/C=C/C=C/C=C/C=C/C=C/[C@H](O[C@@H]2O[C@H](C)[C@@H](O)[C@H](N)[C@@H]2O)C[C@@H]2O[C@](O)(C[C@@H](O)C[C@@H](O)[C@H](O)CC[C@@H](O)C[C@@H](O)CC(=O)O[C@H]1C)C[C@H](O)[C@H]2C(=O)O` [amphotericin B] reads 51%; that for `CN1CCc2cccc3c2[C@H]1Cc1ccc(O)c(O)c1-3` [apomorphine], 56%.
Still for that read-out and setting: the result for `C=C(c1ccc(C(=O)O)cc1)c1cc2c(cc1C)C(C)(C)CCC2(C)C` [bexarotene] reads 74%.
Turning to `CCOc1nc2cccc(C(=O)OC(C)OC(=O)OC3CCCCC3)c2n1Cc1ccc(-c2ccccc2-c2nnn[nH]2)cc1` (stereo not drawn) [candesartan cilexetil], the “inhibition of p38/MK2 interaction, primary screen” value was 68%.
On the same count and under the same terms, the result for `Cc1cc(C(C#N)c2ccc(Cl)cc2)c(Cl)cc1NC(=O)c1cc(I)cc(I)c1O` (stereo not drawn) [closantel] reads 53%; that for `CS(=O)(=O)c1ccc(C2=C(c3ccccc3)C(=O)OC2)cc1` [rofecoxib], 73%.

Staying with this assay, now noted: uHTS TR-FRET signal, Emory Enriched Library.
As to `CCCCCCCCCCCCc1ccc(S(=O)(=O)Nc2nncs2)cc1` [PHT-427, 4-dodecyl-N-(1,3,4-thiadiazol-2-yl)benzenesulfonamide], the Pct of control is recorded as -2.49 Pct of control.
Regarding `C=CC(=O)Nc1ccc2ncnc(Nc3ccc(OCc4cccc(F)c4)c(Cl)c3)c2c1` [AST-1306, N-[4-[3-chloro-4-[(3-fluorophenyl)methoxy]anilino]quinazolin-6-yl]prop-2-enamide;4-methylbenzenesulfonic acid], the Pct of control is 9.2 Pct of control.
